In PubChem BioAssay (NCI):
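48-hour exposure; five concentrations; linearly interpolated endpoints. Definition used: TGI = concentration required for complete inhibition of growth.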

What was measured:
Test in all cases: DTP human tumour cell line panel, 48 h
786-0 renal = test system: 786-0 renal
A498 renal = test system: A498 renal
ACHN renal = test system: ACHN renal
BT-549 breast = test system: BT-549 breast
CAKI-1 renal = test system: CAKI-1 renal
CCRF-CEM leukemia = test system: CCRF-CEM leukemia
COLO 205 colon = test system: COLO 205 colon
DU-145 prostate = test system: DU-145 prostate
EKVX NSCLC = test system: EKVX NSCLC
HCC-2998 colon = test system: HCC-2998 colon
HCT-116 colon = test system: HCT-116 colon
HCT-15 colon = test system: HCT-15 colon
HL-60(TB) leukemia = test system: HL-60(TB) leukemia
HOP-62 NSCLC = test system: HOP-62 NSCLC
HOP-92 NSCLC = test system: HOP-92 NSCLC
HS 578T breast = test system: HS 578T breast
HT29 colon = test system: HT29 colon
IGROV1 ovarian = test system: IGROV1 ovarian
K-562 leukemia = test system: K-562 leukemia
KM12 colon = test system: KM12 colon
LOX IMVI melanoma = test system: LOX IMVI melanoma
M14 melanoma = test system: M14 melanoma
MCF7 breast = test system: MCF7 breast
MDA-MB-231 breast = test system: MDA-MB-231 breast
MDA-MB-435 = test system: MDA-MB-435
MOLT-4 leukemia = test system: MOLT-4 leukemia
NCI-H226 lung = test system: NCI-H226 lung
NCI-H460 lung = test system: NCI-H460 lung
NCI/ADR-RES ovarian = test system: NCI/ADR-RES ovarian
OVCAR-4 ovarian = test system: OVCAR-4 ovarian
OVCAR-8 ovarian = test system: OVCAR-8 ovarian
PC-3 prostate = test system: PC-3 prostate
RPMI-8226 leukemia = test system: RPMI-8226 leukemia
RXF 393 renal = test system: RXF 393 renal
SF-268 CNS = test system: SF-268 CNS
SF-295 CNS = test system: SF-295 CNS
SF-539 CNS = test system: SF-539 CNS
SK-MEL-2 melanoma = test system: SK-MEL-2 melanoma
SK-MEL-28 melanoma = test system: SK-MEL-28 melanoma
SK-MEL-5 melanoma = test system: SK-MEL-5 melanoma
SK-OV-3 ovarian = test system: SK-OV-3 ovarian
SNB-19 CNS = test system: SNB-19 CNS
SNB-75 CNS = test system: SNB-75 CNS
SR leukemia = test system: SR leukemia
SW-620 colon = test system: SW-620 colon
T-47D breast = test system: T-47D breast
TK-10 renal = test system: TK-10 renal
U251 CNS = test system: U251 CNS
UACC-257 melanoma = test system: UACC-257 melanoma
UACC-62 melanoma = test system: UACC-62 melanoma
UO-31 renal = test system: UO-31 renal

Question: How did the TGI (786-0 renal) turn out when `O=C(c1cc2ccccc2cc1O)N1CCCCC1` was run?
Answer: > 100 µM

Question: And the TGI (A498 renal)?
Answer: 63.2 µM

Question: And the TGI (ACHN renal)?
Answer: > 100 µM

Question: What about the TGI (BT-549 breast) of the same molecule?
Answer: 84.2 µM

Question: What about the TGI (CAKI-1 renal) of the same molecule?
Answer: > 100 µM

Question: And the TGI (CCRF-CEM leukemia)?
Answer: 42.6 µM

Question: And the TGI (COLO 205 colon)?
Answer: > 100 µM

Question: And the TGI (DU-145 prostate)?
Answer: > 100 µM

Question: What about the TGI (EKVX NSCLC) of the same molecule?
Answer: 78.1 µM

Question: What about the TGI (HCC-2998 colon) of the same molecule?
Answer: 49.8 µM

Question: What about the TGI (HCT-116 colon) of the same molecule?
Answer: > 100 µM

Question: And the TGI (HCT-15 colon)?
Answer: > 100 µM

Question: And the TGI (HL-60(TB) leukemia)?
Answer: 46.9 µM

Question: What about the TGI (HOP-62 NSCLC) of the same molecule?
Answer: > 100 µM

Question: And the TGI (HOP-92 NSCLC)?
Answer: 43.3 µM

Question: What about the TGI (HS 578T breast) of the same molecule?
Answer: > 100 µM

Question: And the TGI (HT29 colon)?
Answer: > 100 µM

Question: And the TGI (IGROV1 ovarian)?
Answer: 50 µM

Question: What about the TGI (K-562 leukemia) of the same molecule?
Answer: 48.6 µM

Question: And the TGI (KM12 colon)?
Answer: > 100 µM

Question: And the TGI (LOX IMVI melanoma)?
Answer: > 100 µM

Question: And the TGI (M14 melanoma)?
Answer: 64.9 µM

Question: And the TGI (MCF7 breast)?
Answer: > 100 µM

Question: And the TGI (MDA-MB-231 breast)?
Answer: > 100 µM

Question: What about the TGI (MDA-MB-435) of the same molecule?
Answer: > 100 µM

Question: What about the TGI (MOLT-4 leukemia) of the same molecule?
Answer: 42.7 µM

Question: And the TGI (NCI-H226 lung)?
Answer: 85.9 µM

Question: What about the TGI (NCI-H460 lung) of the same molecule?
Answer: > 100 µM

Question: And the TGI (NCI/ADR-RES ovarian)?
Answer: 94.3 µM

Question: And the TGI (OVCAR-4 ovarian)?
Answer: > 100 µM

Question: What about the TGI (OVCAR-8 ovarian) of the same molecule?
Answer: > 100 µM

Question: What about the TGI (PC-3 prostate) of the same molecule?
Answer: > 100 µM

Question: And the TGI (RPMI-8226 leukemia)?
Answer: 56.3 µM

Question: What about the TGI (RXF 393 renal) of the same molecule?
Answer: > 100 µM

Question: And the TGI (SF-268 CNS)?
Answer: > 100 µM

Question: What about the TGI (SF-295 CNS) of the same molecule?
Answer: > 100 µM

Question: What about the TGI (SF-539 CNS) of the same molecule?
Answer: > 100 µM

Question: What about the TGI (SK-MEL-2 melanoma) of the same molecule?
Answer: 46.5 µM

Question: And the TGI (SK-MEL-28 melanoma)?
Answer: > 100 µM

Question: And the TGI (SK-MEL-5 melanoma)?
Answer: 54.6 µM

Question: And the TGI (SK-OV-3 ovarian)?
Answer: > 100 µM

Question: And the TGI (SNB-19 CNS)?
Answer: > 100 µM

Question: What about the TGI (SNB-75 CNS) of the same molecule?
Answer: > 100 µM

Question: And the TGI (SR leukemia)?
Answer: 55.9 µM

Question: What about the TGI (SW-620 colon) of the same molecule?
Answer: > 100 µM

Question: And the TGI (T-47D breast)?
Answer: > 100 µM

Question: What about the TGI (TK-10 renal) of the same molecule?
Answer: > 100 µM

Question: What about the TGI (U251 CNS) of the same molecule?
Answer: > 100 µM

Question: And the TGI (UACC-257 melanoma)?
Answer: > 100 µM

Question: And the TGI (UACC-62 melanoma)?
Answer: > 100 µM

Question: What about the TGI (UO-31 renal) of the same molecule?
Answer: > 100 µM
